Values after ≈ are worked out from the molar mass of the structure shown.

In the test the test system is A. baumannii strain ATCC19606. The test can be described thus: Minimum inhibitory concentration (MIC) determination, microbroth dilution (CLSI). It is filed as cell-based. The conditions noted are these: Acinetobacter baumannii; A. baumannii ATCC19606; CAMHB; read after 20 hours; >=80% growth inhibition; read-out: ATCC19606 MIC. The method, then: The in vitro antimicrobial activity of the compounds was determined through microbroth minimum inhibitory concentration (MIC) methodology performed according to the Clinical and Laboratory Standard Institute guidelines (CLSI—M07-A9 Jan. 2012. Methods for Dilution Antimicrobial Susceptibility Tests for Bacteria That Grow Aerobically; Approved Standard—Ninth Edition, Clinical and Laboratory Standards Institute, Wayne/PA, US and the CLSI—M100-S24 Jan. 2014. Performance Standards for Antimicrobial Susceptibility Testing; Approved Standard—Fourth Informational Supplement, Clinical and Laboratory Standards Institute, Wayne/PA, US).
The compound stock solution was freshly prepared at 10× the required top concentration for the MIC determination, i.e. at 1280 mg/L, by reconstitution of the dry compound in 50:50 water:DMSO.
Polystyrene non-treated 96 wells microtiter plates were used for preparing panel containing compound serial twofold diluted at two times the final testing concentration (e.g. range from 64 to 0.06 μg/ml) in cation adjusted Mueller Hinton broth medium (CAMHB).
Inoculum was prepared by the “direct colony suspension method”. Colonies of A. baumannii ATCC19606 or clinical isolates were suspended in saline solution and adjusted to 0.5 McFarland, diluted 100 times in CAMHB broth and 50 μl added to each well (final concentration of cells ˜5×10^(5) CFU/ml and Final volume/well of 100 μl). Microtiter plates were sealed and incubated at 35±2° C.
MICs values were read after 20 hours of incubation and recorded as the lowest concentration of the antimicrobial that inhibits more or equal to 80% of growth of the organism as detected by the unaided eye and using a microtiter plate optical density reader (OD 600 nm).
Tables 2, 3, 4 and 5 provide the minimum inhibitory concentration (MIC) in microgram per milliliter of the compounds of present invention obtained against the A. baumannii strain ATCC19606 (Tables 2, 3, 4 and 5).
(In general: Dilution methods test growth across graded concentrations, often in twofold steps.)
On to `CN1C(=O)[C@H](CCCCN)NC(=O)[C@H](CCCN)NCc2ccccc2Sc2ccc(Cl)cc2CNC(=O)[C@@H]1Cc1c[nH]c2cc(Cl)ccc12` [Example 18, (12S,15S,18S)-15-(4-Amino-butyl)-18-(3-amino-propyl)-6-chloro-12-(6-chloro-1H-indol-3-ylmethyl)-13-methyl-2-thia-10,13,16,19-tetraaza-tricyclo[19.4.0.0*3,8*]pentacosa-1(21),3,5,7,22,24-hexaene-11,14,17-trione], for which the MIC is 16 µg/mL (≈ 21.7 µM).

For `CN1C(=O)[C@H](CCCCN)NC(=O)[C@H](CCCN)NCc2ccccc2Sc2ccc(Cl)cc2CNC(=O)[C@@H]1Cc1cn(C)c2cc(Cl)ccc12` [Example 19, (12S,15S,18S)-15-(4-Amino-butyl)-18-(3-amino-propyl)-6-chloro-12-(6-chloro-1-methyl-1H-indol-3-ylmethyl)-13-methyl-2-thia-10,13,16,19-tetraaza-tricyclo[19.4.0.0*3,8*]pentacosa-1(21),3,5,7,22,24-hexaene-11,14,17-trione], the MIC was 16 µg/mL (≈ 21.3 µM).

In the case of `C[C@@H]1NC(=O)[C@H](Cc2c[nH]c3ccccc23)N(C)C(=O)[C@H](CCCCN)NC(=O)[C@H](CCCN)NCc2ccccc2Sc2ccc(Cl)cc21` [Example 20, (9S,12S,15S,18S)-15-(4-Amino-butyl)-18-(3-amino-propyl)-6-chloro-12-(1H-indol-3-ylmethyl)-9,13-dimethyl-2-thia-10,13,16,19-tetraaza-tricyclo[19.4.0.0*3,8*]pentacosa-1(25),3,5,7,21,23-hexaene-11,14,17-trione], the MIC worked out at 2 µg/mL (≈ 2.78 µM).

For `CN1C(=O)[C@H](CCCCN)NC(=O)[C@H](CCCN)NCc2ccccc2Sc2ccc(Cl)c(Cl)c2CNC(=O)[C@@H]1Cc1c[nH]c2ccccc12` [Example 21, (12S,15S,18S)-15-(4-Amino-butyl)-18-(3-amino-propyl)-6,7-dichloro-12-(1H-indol-3-ylmethyl)-13-methyl-2-thia-10,13,16,19-tetraaza-tricyclo[19.4.0.0*3,8*]pentacosa-1(25),3,5,7,21,23-hexaene-11,14,17-trione], the MIC was determined as 1 µg/mL (≈ 1.35 µM).

Take `CN1C(=O)[C@H](CCCCN)NC(=O)[C@H](CCCN)NCc2ccccc2Sc2cccc(Cl)c2CNC(=O)[C@@H]1Cc1c[nH]c2ccccc12` [Example 22, (12S,15S,18S)-15-(4-Amino-butyl)-18-(3-amino-propyl)-7-chloro-12-(1H-indol-3-ylmethyl)-13-methyl-2-thia-10,13,16,19-tetraaza-tricyclo[19.4.0.0*3,8*]pentacosa-1(25),3,5,7,21,23-hexaene-11,14,17-trione]: the MIC was determined as 32 µg/mL (≈ 45.4 µM).

`CN1C(=O)[C@H](CCCCN)NC(=O)[C@H](CCCN)NCc2ccccc2Sc2c(Cl)ccc(Cl)c2CNC(=O)[C@@H]1Cc1c[nH]c2ccccc12` [Example 23, (12S,15S,18S)-15-(4-Amino-butyl)-18-(3-amino-propyl)-4,7-dichloro-12-(1H-indol-3-ylmethyl)-13-methyl-2-thia-10,13,16,19-tetraaza-tricyclo[19.4.0.0*3,8*]pentacosa-1(25),3,5,7,21,23-hexaene-11,14,17-trione]: the minimum inhibitory concentration (MIC) came out at 0.5 µg/mL (≈ 0.677 µM).

Consider `CN1C(=O)[C@H](CCCCN)NC(=O)[C@H](CCCN)NCc2ccccc2Sc2c(Cl)ccc(C(F)(F)F)c2CNC(=O)[C@@H]1Cc1c[nH]c2ccccc12` [Example 24, (12S,15S,18S)-15-(4-Amino-butyl)-18-(3-amino-propyl)-4-chloro-12-(1H-indol-3-ylmethyl)-13-methyl-7-trifluoromethyl-2-thia-10,13,16,19-tetraaza-tricyclo[19.4.0.0*3,8*]pentacosa-1(25),3,5,7,21,23-hexaene-11,14,17-trione], for which the MIC amounted to 1 µg/mL (≈ 1.29 µM).

For `CN1C(=O)[C@H](CCCCN)NC(=O)[C@H](CCCN)NCc2ccccc2Sc2c(Cl)cc(C(F)(F)F)cc2CNC(=O)[C@@H]1Cc1c[nH]c2ccccc12` [Example 25, (12S,15S,18S)-15-(4-Amino-butyl)-18-(3-amino-propyl)-4-chloro-12-(1H-indol-3-ylmethyl)-13-methyl-6-trifluoromethyl-2-thia-10,13,16,19-tetraaza-tricyclo[19.4.0.0*3,8*]pentacosa-1(25),3,5,7,21,23-hexaene-11,14,17-trione], the MIC worked out at 1 µg/mL (≈ 1.29 µM).

For `CN1C(=O)[C@H](CCCCN)NC(=O)[C@H](CCCN)NCc2ccccc2Sc2c(Cl)ccc(F)c2CNC(=O)[C@@H]1Cc1c[nH]c2ccccc12` [Example 26, (12S,15S,18S)-15-(4-Amino-butyl)-18-(3-amino-propyl)-4-chloro-7-fluoro-12-(1H-indol-3-ylmethyl)-13-methyl-2-thia-10,13,16,19-tetraaza-tricyclo[19.4.0.0*3,8*]pentacosa-1(25),3,5,7,21,23-hexaene-11,14,17-trione], the MIC was determined as 1 µg/mL (≈ 1.38 µM).

As for `CN1C(=O)[C@H](CCCCN)NC(=O)[C@H](CCCN)NCc2cc(F)ccc2Sc2c(Cl)cc(Cl)cc2CNC(=O)[C@@H]1Cc1c[nH]c2ccccc12` [Example 27, (12S,15S,18S)-15-(4-Amino-butyl)-18-(3-amino-propyl)-4,6-dichloro-23-fluoro-12-(1H-indol-3-ylmethyl)-13-methyl-2-thia-10,13,16,19-tetraaza-tricyclo[19.4.0.0*3,8*]pentacosa-1(25),3,5,7,21,23-hexaene-11,14,17-trione], the minimum inhibitory concentration (MIC) is 2 µg/mL (≈ 2.64 µM).

Consider `CN1C(=O)[C@H](CCCCN)NC(=O)[C@H](CCCN)NCc2cccnc2Sc2c(Cl)cccc2CNC(=O)[C@@H]1Cc1c[nH]c2ccccc12` [Example 28, (11S,14S,17S)-14-(4-Amino-butyl)-11-(3-amino-propyl)-25-chloro-17-(1H-indol-3-ylmethyl)-16-methyl-2-thia-4,10,13,16,19-pentaaza-tricyclo[19.4.0.0*3,8*]pentacosa-1(25),3,5,7,21,23-hexaene-12,15,18-trione], for which the MIC is 2 µg/mL (≈ 2.84 µM).

Consider `CN1C(=O)[C@H](CCCCN)NC(=O)[C@H](CCCN)NCc2ccccc2Sc2c(F)ccc(F)c2CNC(=O)[C@@H]1Cc1c[nH]c2ccccc12` [Example 29, (12S,15S,18S)-15-(4-Amino-butyl)-18-(3-amino-propyl)-4,7-difluoro-12-(1H-indol-3-ylmethyl)-13-methyl-2-thia-10,13,16,19-tetraaza-tricyclo[19.4.0.0*3,8*]pentacosa-1(21),3,5,7,22,24-hexaene-11,14,17-trione], for which the MIC was 2 µg/mL (≈ 2.83 µM).

For `CN1C(=O)[C@H](CCCCN)NC(=O)[C@H](CCCN)NCc2ccccc2Sc2c(F)cccc2CNC(=O)[C@@H]1Cc1c[nH]c2ccccc12` [Example 30, (12S,15S,18S)-15-(4-Amino-butyl)-18-(3-amino-propyl)-4-fluoro-12-(1H-indol-3-ylmethyl)-13-methyl-2-thia-10,13,16,19-tetraaza-tricyclo[19.4.0.0*3,8*]pentacosa-1(21),3,5,7,22,24-hexaene-11,14,17-trione], the minimal inhibitory concentration (MIC) worked out at 2 µg/mL (≈ 2.91 µM).

With `CN1C(=O)[C@H](CCCCN)NC(=O)[C@H](CCCN)NCc2ccccc2Sc2c(cc(Cl)cc2C(F)(F)F)CNC(=O)[C@@H]1Cc1c[nH]c2ccccc12` [Example 31, (12S,15S,18S)-15-(4-Amino-butyl)-18-(3-amino-propyl)-6-chloro-12-(1H-indol-3-ylmethyl)-13-methyl-4-trifluoromethyl-2-thia-10,13,16,19-tetraaza-tricyclo[19.4.0.0*3,8*]pentacosa-1(25),3,5,7,21,23-hexaene-11,14,17-trione], the MIC is 1 µg/mL (≈ 1.29 µM).

As usually defined, the MIC is the smallest concentration in the dilution series that meets the test's criterion for growth inhibition.

(Values after patent publication US10030047B2 (Hoffmann-La Roche Inc., priority 2015, dated 2018).)
